The test concerns Cn Mdh2 CT4–1. The note with it: read-out: Km,MeOH; 1 mM NAD+, 100 mM glycine-NaOH pH 9.5, 50 mM MgSO4, 37 °C, no activator protein.

One compound from publication PMC6479731 (ACS Synthetic Biology, 2019) can be followed below.

In general, Km refers to the substrate concentration at which the rate is half of its maximum.

Take `CO` [methanol]: the Michaelis constant (Km) came to 88.8 ± 7.8 mM.
